Results on 31 compounds are retold here after patent US20050214310A1 (priority 2004, published 2005).

pIC50: −log10 of the molar value.

For one assay, the system named is H3677 melanoma cell line. The assay can be described thus: cells. Conditions: Homo sapiens, H3677. In kind it is cell-based.
What is called pIC50 is the IC50 on a negative log10 scale, so that one unit is a factor of ten. With `N[C@@H](Cc1ccc(N(CCCl)CCCl)cc1)C(=O)O` [melphalan, 4[bis(2 chloroethyl)amino]-L-phynelalanine, reference compound], the pIC50 is 5.55.

The assay is the same for the next values; noted with them: read-out: IC50.
As to “Mel-D-Glu(OMe)2 [Mel-D-Glu bis methyl ester]”, the pIC50 was 5.40. As to Mel-Gly-nitrophenyl amide, the negative-log IC50 (pIC50) was 6.00.

Turning to “Mel-L-Glu(OMe)2 [Mel-L-Glu bis methyl ester]”, the negative logarithm of the IC50 (pIC50) is 5.72.

In the case of Mel-L-Met amide, the negative logarithm of the IC50 (pIC50) was 6.40. On to Mel-L-Phe cyclohexyl amide, for which the pIC50 was 7.82. Consider Mel-L-homoPhe-NH2, for which the negative logarithm of the IC50 (pIC50) is 7.05. For the compound Mel-cyclohexyl amide, the negative-log IC50 (pIC50) was 5.80.

For Mel-phenethyl amide, the negative logarithm of the IC50 (pIC50) was 6.01. As to Mel-propargylalanine-NH2, the negative logarithm of the IC50 (pIC50) is 6.51. In the case of “Melphalan (2-trifluoromethyl)phenethyl ester”, the pIC50 was 5.52. As for “Melphalan (4-cis-t-butyl) cyclohexyl ester [melphalan cis-4-t-butylcyclohexyl ester]”, the pIC50 was 4.89. On to “Melphalan (4-n-propyl)phenethyl ester [melphalan (4-butyl)phenethyl ester]”, for which the pIC50 is 5.34. In the case of “Melphalan (4-trans-t-butyl) cyclohexyl ester”, the pIC50 is 5.44. Take Melphalan Cyclobutyl Ester: the pIC50 was 6.70. With Melphalan Cyclohexyl Ester, the negative logarithm of the IC50 (pIC50) is 7.13. For Melphalan Cyclooctyl Ester, the pIC50 is 5.30. Same read-out and setting: the same measure for Melphalan Methyl Ester: 7.27; for Melphalan Phenethyl Ester: 6.77. Turning to Melphalan t-Butyl Ester, the pIC50 was 5.48.

Consider melphalan amide, for which the pIC50 is 6.19. melphalan anilide: the pIC50 is 5.92.

Still in this assay, the particulars now being: read-out: IC50 (μM) with L49-βL.
As usually defined, the IC50 is the midpoint of a concentration-inhibition curve. For the compound C-Mel Cyclohexyl Ester, the IC50 was found to be 0.23 µM. The same measure, in the same setting: the same measure for Glutaryl C-Mel: 2.4 µM; for Glutaryl C-Mel Cyclohexyl Ester: 0.14 µM.

The assay is the same for the next values; noted with them: read-out: IC50 (μM) with βL.
For the compound C-Mel Cyclobutyl Ester, the IC50 was 0.8 µM. C-Mel Cyclohexyl Ester: the half-inhibitory concentration (IC50) came to 0.083 µM. C-Mel Methyl Ester: the IC50 was found to be 0.0018 µM. The same measure, in the same setting: the same measure for C-Mel t-Butyl Ester: 2.1 µM; for Glutaryl C-Mel: 1.4 µM; for Glutaryl C-Mel Cyclohexyl Ester: 0.087 µM. For Glutaryl C-Mel-D-Phe-NH2, the 50% inhibitory concentration (IC50) was found to be 2.1 µM. On to Glutaryl C-Mel-L-Phe-NH2, for which the 50% inhibitory concentration (IC50) was found to be 0.05 µM. On to glutaryl C-Mel t-butyl ester, for which the IC50 was 2.3 µM.

The assay is the same for the next values; noted with them: read-out: IC50 (μM) without βL.
Turning to C-Mel Cyclobutyl Ester, the IC50 stood at 10 µM. As for C-Mel Cyclohexyl Ester, the IC50 is 1.6 µM. Still for that read-out and setting: next, C-Mel Methyl Ester: 0.65 µM. On to C-Mel t-Butyl Ester, for which the IC50 worked out at 32.3 µM.

In the case of Glutaryl C-Mel, the half-inhibitory concentration (IC50) amounted to 26.3 µM. Regarding Glutaryl C-Mel Cyclohexyl Ester, the IC50 was found to be 1.86 µM.

For the compound Glutaryl C-Mel-D-Phe-NH2, the IC50 worked out at 30 µM. Same read-out and setting: the same measure for Glutaryl C-Mel-L-Phe-NH2: 3.6 µM. Turning to glutaryl C-Mel t-butyl ester, the IC50 came to 25 µM.
